Reference: patent US9957274B2, “Indane inhibitors of EED and methods of their use” (AbbVie Inc., priority 2016, dated 2018)
Like-named read-outs stand apart in the source and are kept apart here.

What was measured:
[1] = test system: H3K27me3 in OCILY19 cells; assay: H3K27me3 AlphaLISA assay in OCILY19 cells; type: cell-based; conditions: Homo sapiens, OCI-LY19, 144 h, 6 days with compound, read-out: OCILY-19 IC50
Protocol: 5,000 cells were plated into each well of 96-well Corning CellBing cell culture plates and incubated overnight at 37° C. in a humidified CO2 incubator. […] The cell culture plates were then incubated for 6 more days. H3K27me3 AlphaLISA assay was performed on the cell culture samples by using AlphaLISAR® H3K27me3 Cellular Detection Kit (PerkinElmer) and 96-well white half-area plates (PerkinElmer).

EED = EED (Homo sapiens, UniProt O75530); assay: EED TR-FRET Binding Assay (modified LanthaScreen competition assay)
Sequence of EED (O75530 whole entry): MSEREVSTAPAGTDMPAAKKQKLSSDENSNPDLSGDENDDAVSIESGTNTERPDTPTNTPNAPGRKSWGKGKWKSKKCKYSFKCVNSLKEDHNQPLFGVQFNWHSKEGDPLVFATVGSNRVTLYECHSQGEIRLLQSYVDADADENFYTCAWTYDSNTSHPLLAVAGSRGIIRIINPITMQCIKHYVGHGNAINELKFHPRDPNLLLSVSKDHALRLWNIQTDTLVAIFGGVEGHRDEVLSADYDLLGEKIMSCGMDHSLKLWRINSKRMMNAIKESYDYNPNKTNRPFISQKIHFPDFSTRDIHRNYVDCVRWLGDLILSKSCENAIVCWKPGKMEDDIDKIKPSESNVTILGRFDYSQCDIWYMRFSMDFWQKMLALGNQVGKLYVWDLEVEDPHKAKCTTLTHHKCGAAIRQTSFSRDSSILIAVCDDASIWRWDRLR
In short: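 Competition binding in a modified LanthaScreen format, in 20 mM Tris-HCl pH 7.5, 200 mM NaCl, 0.01% Tween-20, 10 uM DTT and 0.05% BSA. Reactions ran 1 hour at 25° C before TR-FRET detection.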

H3K27me3 in G401 cells = assay: H3K27me3 AlphaLISA assay in G401 cells; type: cell-based; conditions: Homo sapiens, G-401, 144 h, 6 days with compound
Pfeiffer cells = assay: CTG cell viability assay (CellTiter-Glo); type: cell-based; conditions: Homo sapiens, 240 h
Protocol: 1,000 cells were plated into each well of 96-well Corning CellBing cell culture plates and incubated overnight at 37° C. in a humidified CO2 incubator. […] The cell culture plates were then incubated for 10 more days. CTG cell viability assay was performed on the cell culture samples by using CellTiter-Glo® Luminescent Cell Viability Assay Kit (Promega).

[2] = Pfeiffer cells, 10 days with compound, CellTiter-Glo, read-out: Cell Proliferation IC50

SMILES | IC50 [1] | IC50 (EED) | IC50 (H3K27me3 in G401 cells) | IC50 (Pfeiffer cells; [2]) | IC50 (Pfeiffer cells; Pfeiffer, read-out: Cell Proliferation IC50 (uM))
CN(C)[C@H]1CN(C2CCc3cccc(F)c32)C[C@@H]1C1CCN(c2ncc(C(N)=O)s2)CC1 (mixture of isomers) [Example 162, rac-2-{4-[(3S,4R)-4-(dimethylamino)-1-(7-fluoro-2,3-dihydro-1H-inden-1-yl)pyrrolidin-3-yl]piperidin-1-yl}-1,3-thiazole-5-carboxamide] | 492 nM | 0.646 nM | 291 nM | 0.216 µM | 
CN(C)[C@H]1CN(C2CCc3cccc(F)c32)C[C@@H]1c1cn(C)c2ncccc12 (mixture of isomers) [Example 164, rac-(3R,4S)-1-(7-fluoro-2,3-dihydro-1H-inden-1-yl)-N,N-dimethyl-4-(1-methyl-1H-pyrrolo[2,3-b]pyridin-3-yl)pyrrolidin-3-amine] | 461 nM | 0.494 nM | 291 nM | 0.148 µM | 
CN(C)[C@H]1CN(C2CCc3cccc(F)c32)C[C@@H]1C1CCN(c2ccc(C(N)=O)nn2)CC1 (mixture of isomers) [Example 165, rac-6-{4-[(3S,4R)-4-(dimethylamino)-1-(7-fluoro-2,3-dihydro-1H-inden-1-yl)pyrrolidin-3-yl]piperidin-1-yl}pyridazine-3-carboxamide] | 272 nM | 0.48 nM | 55.9 nM | 0.286 µM | 
CN(C)[C@H]1CN(C2CCc3cccc(F)c32)C[C@@H]1C1CCN(c2ccc(C(N)=O)cc2)CC1 (mixture of isomers) [Example 166, rac-4-{4-[(3S,4R)-4-(dimethylamino)-1-(7-fluoro-2,3-dihydro-1H-inden-1-yl)pyrrolidin-3-yl]piperidin-1-yl}benzamide] | 275 nM | 0.454 nM | 228 nM | 0.129 µM | 
CN(C)[C@H]1CN(C2CCc3cccc(F)c32)C[C@@H]1C1CCN(c2ccc(C(N)=O)cn2)CC1 (mixture of isomers) [Example 167, rac-6-{4-[(3S,4R)-4-(dimethylamino)-1-(7-fluoro-2,3-dihydro-1H-inden-1-yl)pyrrolidin-3-yl]piperidin-1-yl}pyridine-3-carboxamide] | 267 nM | 0.399 nM | 131 nM | 0.143 µM | 
CC(=O)N1CCN(c2ccc([C@H]3CN([C@H]4CCc5cccc(F)c54)C[C@@H]3N(C)C)cc2)CC1 [Example 45, 1-[4-(4-{(3S,4R)-4-(dimethylamino)-1-[(1S)-7-fluoro-2,3-dihydro-1H-inden-1-yl]pyrrolidin-3-yl}phenyl)piperazin-1-yl]ethan-1-one] | 43.3 nM | 0.303 nM | 31.1 nM |  | 0.0284 µM
CN(C)[C@H]1CN(C2CCc3cccc(F)c32)C[C@@H]1c1cn(C)c2c(C(=O)N3CC(F)C3)cccc12 (stereo partly drawn) [Example 102, {3-[(3S,4R)-4-(dimethylamino)-1-(7-fluoro-2,3-dihydro-1H-inden-1-yl)pyrrolidin-3-yl]-1-methyl-1H-indol-7-yl}(3-fluoroazetidin-1-yl)methanone] | 101 nM | 0.335 nM | 40.7 nM | 0.0736 µM | 
CN(C)[C@H]1CN(C2CCc3cccc(F)c32)C[C@@H]1c1cn(C)c2c(C(=O)N3CC(O)C3)cccc12 (stereo partly drawn) [Example 105, {3-[(3S,4R)-4-(dimethylamino)-1-(7-fluoro-2,3-dihydro-1H-inden-1-yl)pyrrolidin-3-yl]-1-methyl-1H-indol-7-yl}(3-hydroxyazetidin-1-yl)methanone] | 27.1 nM | 0.347 nM | 56.4 nM | 0.039 µM | 
CN(C)[C@H]1CN(C2CCc3cccc(F)c32)C[C@@H]1c1cn(C)c2c(C(=O)N3CCN(S(=O)(=O)N4CCC4)CC3)cccc12 (stereo partly drawn) [Example 132, [4-(azetidine-1-sulfonyl)piperazin-1-yl]{3-[(3S,4R)-4-(dimethylamino)-1-(7-fluoro-2,3-dihydro-1H-inden-1-yl)pyrrolidin-3-yl]-1-methyl-1H-indol-7-yl}methanone] | 162 nM | 1.44 nM | 63.3 nM | 0.0943 µM | 
CN(C)[C@H]1CN(C2CCc3cccc(F)c32)C[C@@H]1c1cn(C)c2c(C(=O)N3CCN(S(=O)(=O)N4CC(C#N)C4)CC3)cccc12 (stereo partly drawn) [Example 133, 1-(4-{3-[(3S,4R)-4-(dimethylamino)-1-(7-fluoro-2,3-dihydro-1H-inden-1-yl)pyrrolidin-3-yl]-1-methyl-1H-indole-7-carbonyl}piperazine-1-sulfonyl)azetidine-3-carbonitrile] | 206 nM | 1.45 nM | 61.5 nM | 0.133 µM | 
